Source: patent US12521393B2, “Cytotoxicity targeting chimeras for CCR2-expressing cells” (GLAXOSMITHKLINE INTELLECTUAL PROPERTY DEVELOPMENT LIMITED, priority 2021, dated 2026)
Where “and” joins values, the source holds several entries; their conditions need not be identical. Equal values may be shown once.

Legend:
[1] = Alternative dosing strategy (Example 206): blood concentration of small molecule ARM compound; assay type: in vivo; conditions: co-dosed vs sequentially dosed intravenously with anti-cotinine antibody
Excerpt: FIG. 5: Alternative dosing strategy of small molecule ARM compound to anti-cotinine antibody, as described in Example 206, with anti-cotinine antibody administered intravenously and ARM compound (Example 1) administered subcutaneously following a 2-hour delay from antibody dosing at various molar ratios of small molecule ARM: antibody; data shown is blood concentration of small molecule ARM compound at various timepoints following administration.

CCR2+ expressing cells = assay: Alternative dosing strategy (Example 206): percent depletion of CCR2+ expressing cells by flow cytometry; assay type: in vivo; conditions: co-dosed vs sequentially dosed intravenously with anti-cotinine antibody
[2] = target: anti-cotinine antibody (SEQ ID NO: 9/10, humanized version); assay: SPR binding of anti-cotinine antibody to ARM compounds, Biacore 8k, 25° C., humanized antibody (Example 202)
Excerpt: (§1) Anti-cotinine antibodies having a heavy chain sequence of SEQ ID NO: 9 and a light chain sequence of SEQ ID NO: 10 (humanized version) or a heavy chain sequence of SEQ ID NO: 11 and a light chain sequence of SEQ ID NO: 12 (rabbit version) were captured via the Fc domain to a protein A or A/G surface on flow cell 2 of a CMS sensor chip using the Biacore 8k.
(§2) After antibody capture, a 1500 second wait step was included to reduce drift in the binding step. ARM compounds of Formula (I) were then flowed over the captured antibodies at varying top concentrations ranging from 250 nM to 4 μM (see Table 6 below for top concentration values). The top concentration was diluted 4-fold over 5 dilutions (with a 0 nM compound cycle included to blank subtract the data). Association and dissociation times of the ARMs compounds of Formula (I) varied between experiments as follows and indicated in Table 6 below: reference 1-association for 600 seconds and dissociation for 1200 seconds at 20 μl/min; reference 2-association for 240 seconds and dissociation for 300 seconds at 30 μl/min; reference 3-association for 360 seconds and dissociation for 600 seconds at 30 μl/min. Anti-cotinine antibody bound to the protein A or A/G surface was regenerated using 50 mM NaOH. Experiments were run at 25° C. at pH 7.4 using HBS-EP+ buffer using Biacore 8K control software and evaluated using Biacore Insight Evaluation software. Curves were fit with the 1:1 kinetic fit inherent to the software, utilising a local Rmax and local drift setting.
(§3) Anti-cotinine antibody was tested for binding to ARMs compounds of Formula (I) of the invention in the above assay in or more experimental runs and the results are shown in Table 6 below. Affinity is reported as a pKd value. The pKd value is the negative log of the Kd value, wherein the Kd value is the dissociation constant measured in molar (M) as noted above. For compounds tested in more than one experimental run, the pKd value is reported as an average.

[3] = tested on: anti-cotinine antibody (SEQ ID NO: 11/12, rabbit version); assay: SPR binding of anti-cotinine antibody to ARM compounds, Biacore 8k, 25° C., rabbit antibody (Example 202)
Excerpt: as §1, §2, §3

[4] = time reference 3 (association 360 s, dissociation 600 s, 30 μl/min)

## CC(C)N(C)[C@@H]1CC[C@H](N2CC[C@H](Nc3ncnc4ccc(C(F)(F)F)cc34)C2=O)[C@H](NC(=O)[C@H]2CC[C@H](NC(=O)CCCO[C@H]3CC[C@H](OCCNC(=O)[C@H]4CC(=O)N(C)[C@@H]4c4cccnc4)CC3)CC2)C1 [Example 1, (2S,3S)-N-(2-(((1R,4S)-4-(4-(((1R,4R)-4-(((1R,2S,5R)-5-(Isopropyl(methyl)amino)-2-((S)-2-oxo-3-((6-(trifluoromethyl)quinazolin-4-yl)amino)pyrrolidin-1-yl)cyclohexyl)carbamoyl)cyclohexyl)amino)-4-oxobutoxy)cyclohexyl)oxy)ethyl)-1-methyl-5-oxo-2-(pyridin-3-yl)pyrrolidine-3-carboxamide]
[1]
  PK (blood concentration of small molecule ARM compound): unchanged
CCR2+ expressing cells
  PD (percent depletion of CCR2+ expressing cells): unchanged
[2]; time reference 1 (association 600 s, dissociation 1200 s, 20 μl/min)
  kd: 0.000456 s⁻¹ and 0.000649 s⁻¹
[2]; [4]
  ka: 1.64e+06 M⁻¹ s⁻¹
  kd: 0.000414 s⁻¹
  pKd: 9.6
[3]; [4]
  ka: 5.57e+06 M⁻¹ s⁻¹
  kd: 0.000156 s⁻¹
  pKd: 10.55

## CN1C(=O)C[C@H](C(=O)NCCO[C@H]2CC[C@H](OCCCC(=O)N[C@H]3CC[C@H](C(=O)N[C@@H]4C[C@H](NC(C)(C)C)CC[C@@H]4N4CC[C@H](Nc5ncnc6ccc(C(F)(F)F)cc56)C4=O)CC3)CC2)[C@H]1c1cccnc1 [Example 10, (2S,3S)-N-(2-(((1R,4S)-4-(4-(((1R,4R)-4-(((1R,2S,5R)-5-(tert-Butylamino)-2-((S)-2-oxo-3-((6-(trifluoromethyl)quinazolin-4-yl)amino)pyrrolidin-1-yl)cyclohexyl)carbamoyl)cyclohexyl)amino)-4-oxobutoxy)cyclohexyl)oxy)ethyl)-1-methyl-5-oxo-2-(pyridin-3-yl)pyrrolidine-3-carboxamide]
[2]; [4]
  ka: 1.42e+06 M⁻¹ s⁻¹
  kd: 0.000484 s⁻¹
  pKd: 9.47
[3]; time reference 2 (association 240 s, dissociation 300 s, 30 μl/min)
  pKd: Poor fit
[3]; [4]
  pKd: kd outside
